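Interpolation was linear, between the two tested concentrations surrounding the appropriate level; five concentrations were tested over 48 hours in 96-well plates. GI50 is the concentration that inhibits growth by half.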 Calls of active or inactive are those of the source. Cut-off read from the data, not from the text of the source: active = GI50 up to about 1.1 µM and inactive = higher.
What was measured:
Experiment in all cases: inhibition of tumour cell growth, NCI panel, 48 h
[1] = system: OVCAR-8
[2] = system: K562
[3] = system: ACHN
[4] = system: OVCAR-4
[5] = system: SR
[6] = system: UACC-62
[7] = system: SK-MEL-5
[8] = system: SNB-75
[9] = system: RXF 393
[10] = system: NCI-H226
[11] = system: CCRF-CEM
[12] = system: SK-OV-3
[13] = system: SW-620
[14] = system: TK-10
[15] = system: HCT-15
[16] = system: SK-MEL-28
[17] = system: RPMI-8226
[18] = system: OVCAR-3
[19] = system: LOX IMVI
[20] = system: HOP-92

Compound	GI50 [1]	GI50 [2]	GI50 [3]	GI50 [4]	GI50 [5]	GI50 [6]	GI50 [7]	GI50 [8]	GI50 [9]	GI50 [10]	GI50 [11]	GI50 [12]	GI50 [13]	GI50 [14]	GI50 [15] [µM]	GI50 [16]	GI50 [17]	GI50 [18]	GI50 [19]	GI50 [20]
CC(Cc1ccc2c(c1)OCO2)N(C)C(=O)C1=CCN(C)CC1 (centres undefined)	> 100 µM (inactive)	> 100 µM (inactive)	> 100 µM (inactive)	> 100 µM (inactive)	> 100 µM (inactive)	> 100 µM (inactive)	> 100 µM (inactive)	46.2 µM (inactive)	> 100 µM (inactive)	> 100 µM (inactive)	> 100 µM (inactive)	> 100 µM (inactive)	> 100 µM (inactive)	> 100 µM (inactive)	> 100	> 100 µM (inactive)	> 100 µM (inactive)	> 100 µM (inactive)	> 100 µM (inactive)	–
COc1cccc(CCn2c(N)c(C#N)c3ccc([N+](=O)[O-])cc3c2=O)c1	> 46.5 µM (inactive)	0.283 µM (active)	> 46.5 µM (inactive)	> 84.7 µM (inactive)	0.073 µM (active)	> 31.6 µM (inactive)	> 100 µM (inactive)	> 46.5 µM (inactive)	–	> 31.6 µM (inactive)	4.35 µM (inactive)	> 31.6 µM (inactive)	> 100 µM (inactive)	> 46.5 µM (inactive)	> 31.6	> 100 µM (inactive)	–	> 31.6 µM (inactive)	> 46.5 µM (inactive)	> 31.6 µM (inactive)
CCOC(=O)N/N=C(/N)Cc1ccccc1	> 100 µM (inactive)	> 100 µM (inactive)	> 100 µM (inactive)	–	> 100 µM (inactive)	> 100 µM (inactive)	> 100 µM (inactive)	> 100 µM (inactive)	> 100 µM (inactive)	–	> 100 µM (inactive)	> 100 µM (inactive)	> 100 µM (inactive)	> 100 µM (inactive)	> 100	> 100 µM (inactive)	–	> 100 µM (inactive)	> 100 µM (inactive)	> 100 µM (inactive)
O=C(NCCNCCO)N/N=C/c1cccc([N+](=O)[O-])c1	> 100 µM (inactive)	> 100 µM (inactive)	> 100 µM (inactive)	> 100 µM (inactive)	–	> 100 µM (inactive)	> 100 µM (inactive)	> 100 µM (inactive)	> 100 µM (inactive)	> 100 µM (inactive)	> 100 µM (inactive)	> 100 µM (inactive)	> 100 µM (inactive)	> 100 µM (inactive)	> 100	> 100 µM (inactive)	> 100 µM (inactive)	> 100 µM (inactive)	> 100 µM (inactive)	> 100 µM (inactive)
COc1ccc2c(c1)O[C@H]1c3ccc(O)cc3OC[C@@H]21	36 µM (inactive)	30.1 µM (inactive)	27.2 µM (inactive)	34.6 µM (inactive)	14.3 µM (inactive)	14.3 µM (inactive)	17.3 µM (inactive)	11.2 µM (inactive)	19.3 µM (inactive)	25.1 µM (inactive)	19.2 µM (inactive)	39.5 µM (inactive)	33 µM (inactive)	35.3 µM (inactive)	34.1	–	25.7 µM (inactive)	29.2 µM (inactive)	13 µM (inactive)	–
C[C@]12CC[C@H](OC(=O)Cc3ccc(N(CCCl)CCCl)cc3)CC1=CC[C@@H]1[C@@H]2CC[C@]2(C)C(=O)CC[C@@H]12	> 100 µM (inactive)	> 100 µM (inactive)	> 100 µM (inactive)	–	3.61 µM (inactive)	–	> 100 µM (inactive)	> 100 µM (inactive)	> 100 µM (inactive)	> 100 µM (inactive)	–	–	> 100 µM (inactive)	> 100 µM (inactive)	> 100	> 100 µM (inactive)	> 100 µM (inactive)	> 100 µM (inactive)	> 100 µM (inactive)	> 100 µM (inactive)
C#C[C@H](CCCC)OC(=O)N[C@H](C)c1ccccc1	49.3 µM (inactive)	34.6 µM (inactive)	41.9 µM (inactive)	42 µM (inactive)	26.9 µM (inactive)	80.9 µM (inactive)	21.7 µM (inactive)	41.2 µM (inactive)	30.9 µM (inactive)	–	34.6 µM (inactive)	> 100 µM (inactive)	68.2 µM (inactive)	37.8 µM (inactive)	–	54.5 µM (inactive)	24.5 µM (inactive)	53.3 µM (inactive)	33.2 µM (inactive)	57.5 µM (inactive)
CC(=O)NC(CCCNC(=O)N(C)N=O)C(=O)NCc1ccccc1 (centres undefined)	> 100 µM (inactive)	> 100 µM (inactive)	> 100 µM (inactive)	> 100 µM (inactive)	–	> 100 µM (inactive)	> 100 µM (inactive)	52.1 µM (inactive)	> 100 µM (inactive)	> 100 µM (inactive)	> 100 µM (inactive)	> 100 µM (inactive)	> 100 µM (inactive)	> 100 µM (inactive)	> 100	> 100 µM (inactive)	> 100 µM (inactive)	> 100 µM (inactive)	> 100 µM (inactive)	> 100 µM (inactive)

Source: ChEMBL document CHEMBL1201862, “PubChem BioAssay data set” (2004)
